Experimental data reported in article PMC3363220, “Specific PKG inhibitors: do they really exist?” (BMC Pharmacology, 2011).
Where a SMILES comes first, the peptide text is derived from it. [ ]: non-standard residue; d: D form.

Tests used:
[1] = tested on: PKG in intact cells; conditions: ref [1]; cited from earlier work
Source text: Cellular cGMP effects can be mediated by a number of effectors including cGMP-dependent protein kinases (PKGs), cGMP-stimulated phosphodiesterase (PDE2), cGMP-inhibited phosphodiesterase (PDE3), and cGMP-gated channels. Pharmacological inhibitors of PKG are often used to discriminate between these diverse cGMP effects. Currently used PKG inhibitors can be divided into three classes: cyclic nucleotide binding site inhibitors like Rp-phosphorothioate analogs, ATP binding site inhibitors like KT5823, and substrate binding site inhibitors like the recently described DT-oligopeptides. However, seve ...

[2] = tested on: PKG II; experiment: inhibition of PKG II; format: biochemical; conditions: up to 1 µM (D)-DT2
Protocol: (§1) We tested the inhibitory effects of (D)-DT2 and DT3 on PKG and its effects on intact cells. […] It should be noted that the measured PKG concentration is about 7 µM in platelets and 0.1 – 0.5 µM in all other tested cells.

[3] = tested on: platelets; experiment: calcium mobilization in collagen-stimulated platelets; format: cell-based; conditions: preincubation of platelets with 10 nM (D)-DT2
Protocol: as §1

[4] = tested on: platelets; experiment: aggregation of collagen-stimulated platelets; format: cell-based; conditions: preincubation of platelets with 10 nM (D)-DT2
Protocol: as §1

[5] = tested on: platelets; experiment: thrombin-induced platelet aggregation; format: cell-based; conditions: preincubation of platelets with 10 nM (D)-DT2
Protocol: as §1

[6] = tested on: PKA; experiment: inhibition of PKA; format: biochemical; conditions: up to 1 µM (D)-DT2
[7] = tested on: platelets; experiment: thrombin-induced calcium mobilization in platelets; format: cell-based; conditions: preincubation of platelets with 10 nM (D)-DT2
Protocol: as §1

[8] = tested on: PKG; experiment: PKG activity in broken platelet cell experiments; format: biochemical; conditions: broken platelet cells, measured PKG concentration about 7 µM in platelets
Protocol: as §1

[9] = tested on: platelets; experiment: platelet function versus PKG activity; format: cell-based
Protocol: as §1

[10] = tested on: PKA; experiment: PKA activity in broken platelet cell experiments; format: biochemical; conditions: broken platelet cells; at these concentrations (starting at 5 µM, complete PKG inhibition at 20 µM)
Protocol: as §1

## COC(=O)[C@@]1(OC)C[C@H]2O[C@]1(C)n1c3ccccc3c3c4c(c5c6ccccc6n2c5c31)C(=O)N(C)C4 [KT5823]
[1]
  PKG inhibition in intact cells: no PKG inhibition

## CC(C)C[C@@H](NC(=O)[C@H]1CCCN1C(=O)[C@H]1CCCN1C(=O)[C@@H](CCCNC(=N)N)NC(=O)[C@@H](CCCNC(=N)N)NC(=O)[C@@H](CCCNC(=N)N)NC(=O)[C@@H](CCC(N)=O)NC(=O)[C@@H](CCCNC(=N)N)NC(=O)[C@@H](CCCNC(=N)N)NC(=O)[C@@H](CCCCN)NC(=O)[C@@H](CCCCN)NC(=O)[C@@H](CCCNC(=N)N)NC(=O)CNC(=O)[C@H](N)Cc1ccc(O)cc1)C(=O)N[C@H](CCCNC(=N)N)C(=O)N[C@H](CCCCN)C(=O)N[C@H](CCCCN)C(=O)N[C@H](CCCCN)C(=O)N[C@H](CCCCN)C(=O)N[C@H](CCCCN)C(=O)N[C@H](Cc1c[nH]cn1)C(N)=O [(D)-DT2] (H-[dY]G[dR][dK][dK][dR][dR][dQ][dR][dR][dR][dP][dP][dL][dR][dK][dK][dK][dK][dK][dH]-NH2; N-terminus and C-terminus assumed)
[2]
  inhibition of PKG II: did not inhibit
[3]
  effect on calcium mobilization in collagen-stimulated platelets: potentiated
[4]
  effect on aggregation in collagen-stimulated platelets: potentiated
[5]
  effect on thrombin-induced platelet aggregation: strongly inhibited
[6]
  inhibition of PKA: did not inhibit
[7]
  effect on thrombin-induced calcium mobilization: strongly inhibited
[8]; complete inhibition
  concentration giving complete inhibition of PKG activity: 20 µM
[8]
  concentration at which PKG inhibition starts: 5 µM
[9]
  correlation of effects on platelet function with PKG activity: did not correlate with PKG activity
[10]
  inhibition of PKA activity: observed inhibition of PKA activity
